According to PMC5428509, “Irreversible inhibition of BTK kinase by a novel highly selective inhibitor CHMFL-BTK-11 suppresses inflammatory response in rheumatoid arthritis model” (Scientific Reports, 2017):

Experiments:
Test in all cases: biochemical
Parameters in all cases: KinomeScan competition binding panel (DiscoveRx), percent of control at 1 uM
Settings in all cases: read-out: Percent Control
NIM1 = molecular target: T1, NIM1 (Homo sapiens, UniProt Q8IY84)
T1 construct: gene NIM1K
Excerpt: (§1) In order to further confirm the binding mode, we then tested the compounds in the BTK wild-type (wt) and BTK C481S mutant with immunoblotting by looking at the BTK Y551 auto-phosphorylation. […] In addition, a covalent bond was preferred to form between the […] acrylamide and Cys-481 near the hinge binding area, which further confirmed its irreversible binding mode (Fig. 1d). We next investigated CHMFL-BTK-11′s selectivity profile in 456 kinases/mutants with KinomeScan^TM technology.

LIMK2 = LIMK2 (Homo sapiens, UniProt P53671)
Excerpt: as §1

PRKCE = PRKCE (Homo sapiens, UniProt Q02156)
Excerpt: as §1

PCTK1 = molecular target: T2, PCTK1 (Homo sapiens, UniProt Q00536)
T2 construct: gene CDK16
Excerpt: as §1

p38-gamma = molecular target: T3, p38-gamma (Homo sapiens, UniProt P53778)
T3 construct: gene MAPK12
Excerpt: as §1

HPK1 = molecular target: T4, HPK1 (Homo sapiens, UniProt Q92918)
T4 construct: gene MAP4K1
Excerpt: as §1

AURKC = AURKC (Homo sapiens, UniProt Q9UQB9)
Excerpt: as §1

GRK1 = GRK1 (Homo sapiens, UniProt Q15835)
Excerpt: as §1

ERBB3 = ERBB3 (Homo sapiens, UniProt P21860)
Excerpt: as §1

[1] = molecular target: T5, ABL1(M351T)-phosphorylated (Homo sapiens, UniProt P00519, M351T)
T5 construct: phosphorylated
Excerpt: as §1

DCAMKL3 = molecular target: T6, DCAMKL3 (Homo sapiens, UniProt Q9C098)
T6 construct: gene DCLK3
Excerpt: as §1

CSNK2A2 = CSNK2A2 (Homo sapiens, UniProt P19784)
Excerpt: as §1

RET(V804M) = RET(V804M) (Homo sapiens, UniProt P07949, V804M)
Excerpt: as §1

PHKG1 = PHKG1 (Homo sapiens, UniProt Q16816)
Excerpt: as §1

TAK1 = molecular target: T7, TAK1 (Homo sapiens, UniProt O43318)
T7 construct: gene MAP3K7
Excerpt: as §1

FGFR1 = FGFR1 (Homo sapiens, UniProt P11362)
Excerpt: as §1

MEK3 = molecular target: T8, MEK3 (Homo sapiens, UniProt P46734)
T8 construct: gene MAP2K3
Excerpt: as §1

MEK4 = molecular target: T9, MEK4 (Homo sapiens, UniProt P45985)
T9 construct: gene MAP2K4
Excerpt: as §1

EGFR(G719S) = EGFR(G719S) (Homo sapiens, UniProt P00533, G719S)
Excerpt: as §1

PAK6 = PAK6 (Homo sapiens, UniProt Q9NQU5)
Excerpt: as §1

EPHB1 = EPHB1 (Homo sapiens, UniProt P54762)
Excerpt: as §1

MLK2 = molecular target: T10, MLK2 (Homo sapiens, UniProt Q02779)
T10 construct: gene MAP3K10
Excerpt: as §1

INSR = INSR (Homo sapiens, UniProt P06213)
Excerpt: as §1

ACVR2B = ACVR2B (Homo sapiens, UniProt Q13705)
Excerpt: as §1

PIK3C2B = PIK3C2B (Homo sapiens, UniProt O00750)
Excerpt: as §1

Sequence of ACVR2B (Q13705 whole entry): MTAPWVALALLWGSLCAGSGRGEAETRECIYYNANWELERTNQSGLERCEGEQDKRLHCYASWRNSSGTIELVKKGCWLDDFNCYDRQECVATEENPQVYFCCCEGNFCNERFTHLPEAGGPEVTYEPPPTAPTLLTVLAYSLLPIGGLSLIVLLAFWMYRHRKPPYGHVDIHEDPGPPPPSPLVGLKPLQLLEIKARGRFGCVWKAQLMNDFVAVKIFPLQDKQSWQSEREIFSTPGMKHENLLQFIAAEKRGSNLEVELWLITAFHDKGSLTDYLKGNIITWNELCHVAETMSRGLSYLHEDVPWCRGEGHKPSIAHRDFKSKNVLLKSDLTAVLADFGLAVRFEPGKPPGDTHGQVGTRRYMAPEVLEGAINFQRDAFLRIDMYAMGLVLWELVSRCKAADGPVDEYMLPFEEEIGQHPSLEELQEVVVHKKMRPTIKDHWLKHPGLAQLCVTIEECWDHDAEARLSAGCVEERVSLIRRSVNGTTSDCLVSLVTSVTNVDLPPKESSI
Sequence of FGFR1 (P11362 whole entry): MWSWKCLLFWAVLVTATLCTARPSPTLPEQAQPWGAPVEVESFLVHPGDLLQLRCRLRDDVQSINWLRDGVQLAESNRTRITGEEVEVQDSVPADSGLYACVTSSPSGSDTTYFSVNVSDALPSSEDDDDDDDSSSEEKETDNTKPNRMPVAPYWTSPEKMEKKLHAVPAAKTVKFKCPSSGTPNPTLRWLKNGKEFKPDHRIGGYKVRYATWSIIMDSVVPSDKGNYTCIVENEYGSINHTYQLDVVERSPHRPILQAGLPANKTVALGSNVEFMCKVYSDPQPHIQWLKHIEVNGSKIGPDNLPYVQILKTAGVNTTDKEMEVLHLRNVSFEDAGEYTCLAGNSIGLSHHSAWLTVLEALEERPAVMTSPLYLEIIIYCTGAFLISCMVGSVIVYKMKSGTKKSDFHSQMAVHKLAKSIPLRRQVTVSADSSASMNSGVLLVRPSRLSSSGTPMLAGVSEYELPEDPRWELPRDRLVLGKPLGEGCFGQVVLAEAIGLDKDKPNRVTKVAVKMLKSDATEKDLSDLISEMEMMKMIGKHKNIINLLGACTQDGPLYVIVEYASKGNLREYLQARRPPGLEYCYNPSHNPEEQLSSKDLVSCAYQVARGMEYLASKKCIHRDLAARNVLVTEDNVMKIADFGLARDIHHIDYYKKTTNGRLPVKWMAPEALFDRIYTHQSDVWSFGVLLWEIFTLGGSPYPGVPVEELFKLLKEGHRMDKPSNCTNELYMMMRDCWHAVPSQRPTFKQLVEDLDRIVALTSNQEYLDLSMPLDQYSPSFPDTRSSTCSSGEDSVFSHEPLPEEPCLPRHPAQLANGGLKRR
T10 sequence (Q02779 whole entry): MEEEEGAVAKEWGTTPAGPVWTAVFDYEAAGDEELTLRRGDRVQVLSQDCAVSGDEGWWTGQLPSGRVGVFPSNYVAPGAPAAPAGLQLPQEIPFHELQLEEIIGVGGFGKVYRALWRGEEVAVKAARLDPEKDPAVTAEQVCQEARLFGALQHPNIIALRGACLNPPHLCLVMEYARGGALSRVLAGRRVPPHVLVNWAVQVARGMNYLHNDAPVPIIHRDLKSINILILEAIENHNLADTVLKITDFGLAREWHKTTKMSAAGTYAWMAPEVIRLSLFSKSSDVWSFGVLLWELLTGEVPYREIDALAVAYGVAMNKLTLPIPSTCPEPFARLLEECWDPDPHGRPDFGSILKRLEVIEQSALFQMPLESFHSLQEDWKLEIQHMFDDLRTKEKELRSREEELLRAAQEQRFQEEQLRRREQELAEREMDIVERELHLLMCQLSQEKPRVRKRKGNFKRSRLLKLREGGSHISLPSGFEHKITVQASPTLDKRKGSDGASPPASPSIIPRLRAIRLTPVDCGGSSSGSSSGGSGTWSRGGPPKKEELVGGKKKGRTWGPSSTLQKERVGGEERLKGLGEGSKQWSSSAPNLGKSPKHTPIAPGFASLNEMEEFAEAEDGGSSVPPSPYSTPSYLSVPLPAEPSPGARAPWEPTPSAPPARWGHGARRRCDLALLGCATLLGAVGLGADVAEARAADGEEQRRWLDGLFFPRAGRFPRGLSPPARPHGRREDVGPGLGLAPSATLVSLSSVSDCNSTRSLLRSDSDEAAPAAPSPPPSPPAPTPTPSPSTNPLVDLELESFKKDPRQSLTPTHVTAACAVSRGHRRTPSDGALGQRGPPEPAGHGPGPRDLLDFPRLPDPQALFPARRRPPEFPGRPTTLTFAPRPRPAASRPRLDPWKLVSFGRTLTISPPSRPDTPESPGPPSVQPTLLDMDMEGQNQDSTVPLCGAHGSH
Sequence of PRKCE (Q02156 whole entry): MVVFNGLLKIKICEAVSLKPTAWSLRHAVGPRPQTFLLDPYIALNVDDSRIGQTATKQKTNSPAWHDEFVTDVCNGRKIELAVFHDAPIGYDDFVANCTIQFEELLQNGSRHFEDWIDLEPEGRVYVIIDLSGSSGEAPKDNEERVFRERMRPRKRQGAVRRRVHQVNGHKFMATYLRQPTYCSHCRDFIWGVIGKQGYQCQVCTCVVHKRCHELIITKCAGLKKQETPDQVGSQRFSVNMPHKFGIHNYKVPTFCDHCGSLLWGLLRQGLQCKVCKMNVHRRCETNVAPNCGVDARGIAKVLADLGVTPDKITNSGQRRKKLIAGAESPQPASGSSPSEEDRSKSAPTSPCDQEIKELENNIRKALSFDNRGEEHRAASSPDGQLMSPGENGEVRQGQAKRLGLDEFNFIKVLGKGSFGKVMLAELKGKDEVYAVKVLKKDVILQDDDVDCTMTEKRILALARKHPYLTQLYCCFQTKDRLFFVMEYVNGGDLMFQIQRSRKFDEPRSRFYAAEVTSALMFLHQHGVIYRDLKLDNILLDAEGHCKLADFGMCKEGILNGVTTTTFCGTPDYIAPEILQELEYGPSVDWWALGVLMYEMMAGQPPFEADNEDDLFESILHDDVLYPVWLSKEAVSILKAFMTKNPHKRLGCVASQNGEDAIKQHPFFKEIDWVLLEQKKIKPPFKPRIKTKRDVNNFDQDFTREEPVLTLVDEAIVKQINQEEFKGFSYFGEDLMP
Sequence of AURKC (Q9UQB9 whole entry): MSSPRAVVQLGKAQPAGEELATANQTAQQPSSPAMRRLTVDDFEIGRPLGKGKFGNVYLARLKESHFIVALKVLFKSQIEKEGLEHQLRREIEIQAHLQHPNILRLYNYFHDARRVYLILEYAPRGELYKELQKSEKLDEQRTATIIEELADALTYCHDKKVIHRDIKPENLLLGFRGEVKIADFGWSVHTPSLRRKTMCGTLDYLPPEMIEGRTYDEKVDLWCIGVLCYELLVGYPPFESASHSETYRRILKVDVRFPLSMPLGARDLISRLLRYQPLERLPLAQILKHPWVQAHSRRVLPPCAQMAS
Sequence of PIK3C2B (O00750 whole entry): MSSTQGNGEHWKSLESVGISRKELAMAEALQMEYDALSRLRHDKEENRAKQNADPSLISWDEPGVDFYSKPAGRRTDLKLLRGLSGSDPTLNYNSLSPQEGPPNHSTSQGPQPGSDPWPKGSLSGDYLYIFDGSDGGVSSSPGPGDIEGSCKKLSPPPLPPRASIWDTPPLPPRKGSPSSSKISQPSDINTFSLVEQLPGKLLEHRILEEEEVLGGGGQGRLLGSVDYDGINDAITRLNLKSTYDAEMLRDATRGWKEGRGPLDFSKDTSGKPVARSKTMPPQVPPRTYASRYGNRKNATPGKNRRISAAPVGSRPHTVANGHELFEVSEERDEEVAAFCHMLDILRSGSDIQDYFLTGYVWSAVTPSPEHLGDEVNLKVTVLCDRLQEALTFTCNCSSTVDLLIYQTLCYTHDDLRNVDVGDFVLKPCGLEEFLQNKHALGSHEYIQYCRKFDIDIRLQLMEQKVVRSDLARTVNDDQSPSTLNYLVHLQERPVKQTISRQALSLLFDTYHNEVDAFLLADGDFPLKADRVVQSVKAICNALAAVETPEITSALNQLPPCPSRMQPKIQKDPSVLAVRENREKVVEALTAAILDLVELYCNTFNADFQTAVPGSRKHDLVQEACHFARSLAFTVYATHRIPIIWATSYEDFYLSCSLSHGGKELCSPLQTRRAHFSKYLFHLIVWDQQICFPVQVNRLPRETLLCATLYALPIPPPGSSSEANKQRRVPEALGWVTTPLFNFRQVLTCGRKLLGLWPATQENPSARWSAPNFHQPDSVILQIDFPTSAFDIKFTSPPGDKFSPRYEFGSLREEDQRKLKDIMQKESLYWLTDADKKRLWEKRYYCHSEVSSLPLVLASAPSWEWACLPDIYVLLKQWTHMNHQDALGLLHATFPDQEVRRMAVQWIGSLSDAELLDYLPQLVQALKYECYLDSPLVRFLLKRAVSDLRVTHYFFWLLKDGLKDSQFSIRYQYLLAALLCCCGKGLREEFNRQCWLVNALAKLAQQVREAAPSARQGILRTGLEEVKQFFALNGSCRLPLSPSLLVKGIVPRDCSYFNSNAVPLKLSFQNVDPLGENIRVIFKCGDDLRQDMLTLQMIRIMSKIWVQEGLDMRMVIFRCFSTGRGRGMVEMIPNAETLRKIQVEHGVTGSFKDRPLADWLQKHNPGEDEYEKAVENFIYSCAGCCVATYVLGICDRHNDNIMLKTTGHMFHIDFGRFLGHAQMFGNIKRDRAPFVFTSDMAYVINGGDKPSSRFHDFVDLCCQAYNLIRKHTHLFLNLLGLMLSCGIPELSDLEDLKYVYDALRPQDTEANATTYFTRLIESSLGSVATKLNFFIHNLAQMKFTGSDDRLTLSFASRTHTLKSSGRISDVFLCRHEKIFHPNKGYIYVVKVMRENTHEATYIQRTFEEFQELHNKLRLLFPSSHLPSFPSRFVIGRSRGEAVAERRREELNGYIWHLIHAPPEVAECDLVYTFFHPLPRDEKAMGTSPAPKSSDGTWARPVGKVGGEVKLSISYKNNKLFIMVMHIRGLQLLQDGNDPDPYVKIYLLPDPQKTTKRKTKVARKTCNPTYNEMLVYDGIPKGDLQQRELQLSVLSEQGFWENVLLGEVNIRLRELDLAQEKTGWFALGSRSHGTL

SMILES: C=CC(=O)Nc1cc(-n2c(=O)ccc3cnc4ccc(-n5cccn5)cc4c32)ccc1C [CHMFL-BTK-11]
- remaining binding at 1 µM (NIM1): 100%
- remaining binding at 1 µM (LIMK2): 100%
- remaining binding at 1 µM (PRKCE): 97%
- remaining binding at 1 µM (PCTK1): 100%
- remaining binding at 1 µM (p38-gamma): 79%
- remaining binding at 1 µM (HPK1): 94%
- remaining binding at 1 µM (AURKC): 98%
- remaining binding at 1 µM (GRK1): 71%
- remaining binding at 1 µM (ERBB3): 90%
- remaining binding at 1 µM [1]: 72%
- remaining binding at 1 µM (DCAMKL3): 88%
- remaining binding at 1 µM (CSNK2A2): 52%
- remaining binding at 1 µM (RET(V804M)): 100%
- remaining binding at 1 µM (PHKG1): 100%
- remaining binding at 1 µM (TAK1): 98%
- remaining binding at 1 µM (FGFR1): 88%
- remaining binding at 1 µM (MEK3): 86%
- remaining binding at 1 µM (MEK4): 100%
- remaining binding at 1 µM (EGFR(G719S)): 88%
- remaining binding at 1 µM (PAK6): 100%
- remaining binding at 1 µM (EPHB1): 100%
- remaining binding at 1 µM (MLK2): 94%
- remaining binding at 1 µM (INSR): 82%
- remaining binding at 1 µM (ACVR2B): 95%
- remaining binding at 1 µM (PIK3C2B): 100%
